From ChEMBL document CHEMBL3885861, “Open TG-GATES”

Organism: Rattus norvegicus
Assay: Open TG-GATES - Regimen: Single
Format: toxicity, organism-based, Sprague-Dawley
Design: regimen Single, gender Male, age 6 weeks
Conditions: in vivo, po, 0 mg/kg, route gavage, dose level Control; for APTT / Bas / Eos / Fbg / Hb / Ht / Lym / MCH / MCHC / MCV / Mono / Neu / Plat / RBC / Ret / WBC: tissue Blood; for KIDNEY_L / KIDNEY_R / KIDNEY_TOTAL: tissue Kidney; for LIVER: tissue Liver; for ALP / ALT / AST / BUN / CRE / Ca / Cl / DBIL / GLC / IP / K / LDH / Na / PL / RALB / TBIL / TC / TG / TP / gamma-GTP: tissue Plasma

CC(=O)Oc1ccccc1C(=O)O [ASPIRIN]
TERMINAL_BW (3 h): 221 g
APTT (3 h): 17.5 s
Bas (3 h): 0.2%
Eos (3 h): 1.2%
Fbg (3 h): 226.6 mg/dL
Hb (3 h): 13.4 g/dL
Ht (3 h): 37.1%
Lym (3 h): 75.4%
MCH (3 h): 22 pg
MCHC (3 h): 36.1%
MCV (3 h): 60.8 fL
Mono (3 h): 2.2%
Neu (3 h): 20%
Plat (3 h): 118.6 x10_4/uL
RBC (3 h): 611.4 x10_4/ul
Ret (3 h): 8%
WBC (3 h): 87.8 x10_2/uL
KIDNEY_L (3 h): 1 g
KIDNEY_R (3 h): 1 g
KIDNEY_TOTAL (3 h): 2 g
LIVER (3 h): 9.9 g
ALP (3 h): 895.2 IU/L
ALT (3 h): 34.8 IU/L
AST (3 h): 72.4 IU/L
BUN (3 h): 9.8 mg/dL
CRE (3 h): 0.4 mg/dL
Ca (3 h): 10.7 mg/dL
Cl (3 h): 103.8 meq/L
DBIL (3 h): 0.066 mg/dL
GLC (3 h): 198.2 mg/dL
IP (3 h): 9.6 mg/dL
K (3 h): 3.9 meq/L
LDH (3 h): 186.2 IU/L
Na (3 h): 142.4 meq/L
PL (3 h): 138.4 mg/dL
RALB (3 h): 3.4 g/dL
TBIL (3 h): 0.1 mg/dL
TC (3 h): 77 mg/dL
TG (3 h): 48.8 mg/dL
TP (3 h): 5.5 g/dL
gamma-GTP (3 h): 1.2 IU/L
TERMINAL_BW (6 h): 217.3 g
APTT (6 h): 17.7 s
Bas (6 h): 0%
Eos (6 h): 0.8%
Fbg (6 h): 235 mg/dL
Hb (6 h): 13.9 g/dL
Ht (6 h): 38.3%
Lym (6 h): 77.2%
MCH (6 h): 22 pg
MCHC (6 h): 36.3%
MCV (6 h): 60.5 fL
Mono (6 h): 2.4%
Neu (6 h): 18.4%
Plat (6 h): 131.2 x10_4/uL
RBC (6 h): 632.8 x10_4/ul
Ret (6 h): 7.8%
WBC (6 h): 104.9 x10_2/uL
KIDNEY_L (6 h): 0.9 g
KIDNEY_R (6 h): 0.9 g
KIDNEY_TOTAL (6 h): 1.9 g
LIVER (6 h): 9 g
ALP (6 h): 815 IU/L
ALT (6 h): 32 IU/L
AST (6 h): 68.4 IU/L
BUN (6 h): 9 mg/dL
CRE (6 h): 0.4 mg/dL
Ca (6 h): 10.6 mg/dL
Cl (6 h): 103.2 meq/L
DBIL (6 h): 0.07 mg/dL
GLC (6 h): 185.8 mg/dL
IP (6 h): 9.5 mg/dL
K (6 h): 3.8 meq/L
LDH (6 h): 208.8 IU/L
Na (6 h): 141.2 meq/L
PL (6 h): 139.2 mg/dL
RALB (6 h): 3.4 g/dL
TBIL (6 h): 0.1 mg/dL
TC (6 h): 80.4 mg/dL
TG (6 h): 62.8 mg/dL
TP (6 h): 5.5 g/dL
gamma-GTP (6 h): 1 IU/L
TERMINAL_BW (9 h): 214.9 g
APTT (9 h): 17.3 s
Bas (9 h): 0%
Eos (9 h): 0.8%
Fbg (9 h): 224 mg/dL
Hb (9 h): 14 g/dL
Ht (9 h): 38.7%
Lym (9 h): 80.2%
MCH (9 h): 22.2 pg
MCHC (9 h): 36.3%
MCV (9 h): 61.1 fL
Mono (9 h): 2.4%
Neu (9 h): 15.2%
Plat (9 h): 121.8 x10_4/uL
RBC (9 h): 632.8 x10_4/ul
Ret (9 h): 8%
WBC (9 h): 88.9 x10_2/uL
KIDNEY_L (9 h): 0.9 g
KIDNEY_R (9 h): 0.9 g
KIDNEY_TOTAL (9 h): 1.8 g
LIVER (9 h): 8.6 g
ALP (9 h): 795.2 IU/L
ALT (9 h): 31.2 IU/L
AST (9 h): 64.8 IU/L
BUN (9 h): 9.4 mg/dL
CRE (9 h): 0.4 mg/dL
Ca (9 h): 10.4 mg/dL
Cl (9 h): 104 meq/L
DBIL (9 h): 0.066 mg/dL
GLC (9 h): 206.6 mg/dL
IP (9 h): 10 mg/dL
K (9 h): 3.8 meq/L
LDH (9 h): 205.6 IU/L
Na (9 h): 141.4 meq/L
PL (9 h): 128.6 mg/dL
RALB (9 h): 3.4 g/dL
TBIL (9 h): 0.1 mg/dL
TC (9 h): 69.2 mg/dL
TG (9 h): 46.2 mg/dL
TP (9 h): 5.6 g/dL
gamma-GTP (9 h): 1.2 IU/L
TERMINAL_BW (24 h): 234.6 g
APTT (24 h): 18.4 s
Bas (24 h): 0.8%
Eos (24 h): 1%
Fbg (24 h): 222.8 mg/dL
Hb (24 h): 13.8 g/dL
Ht (24 h): 37.7%
Lym (24 h): 77.2%
MCH (24 h): 22.6 pg
MCHC (24 h): 36.6%
MCV (24 h): 61.7 fL
Mono (24 h): 2.8%
Neu (24 h): 17.8%
Plat (24 h): 132 x10_4/uL
RBC (24 h): 611.8 x10_4/ul
Ret (24 h): 7.1%
WBC (24 h): 109.6 x10_2/uL
KIDNEY_L (24 h): 1 g
KIDNEY_R (24 h): 1 g
KIDNEY_TOTAL (24 h): 2 g
ALP (24 h): 1023.4 IU/L
ALT (24 h): 39 IU/L
AST (24 h): 72.4 IU/L
BUN (24 h): 15.8 mg/dL
CRE (24 h): 0.4 mg/dL
Ca (24 h): 10.6 mg/dL
Cl (24 h): 103.6 meq/L
DBIL (24 h): 0.062 mg/dL
GLC (24 h): 204.2 mg/dL
IP (24 h): 7.8 mg/dL
K (24 h): 3.9 meq/L
LDH (24 h): 207.2 IU/L
Na (24 h): 141.2 meq/L
PL (24 h): 153.4 mg/dL
RALB (24 h): 3.5 g/dL
TBIL (24 h): 0.1 mg/dL
TC (24 h): 74 mg/dL
TG (24 h): 124.4 mg/dL
TP (24 h): 5.6 g/dL
gamma-GTP (24 h): 1.2 IU/L
